Measured values reported in PubChem BioAssay (NCI).
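Protocol summary: plate cells (96-well), add compound at 5 concentrations, incubate 48 h, interpolate endpoints linearly. TGI: concentration producing complete growth inhibition.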

Key:
Assay in all cases: NCI-60 cell line screen, 48 h
KM20L2 colon = tested on: KM20L2 colon
M19-MEL melanoma = tested on: M19-MEL melanoma
OVCAR-3 ovarian = tested on: OVCAR-3 ovarian
DLD-1 colon = tested on: DLD-1 colon
K-562 leukemia = tested on: K-562 leukemia
SF-539 CNS = tested on: SF-539 CNS
SN12C renal = tested on: SN12C renal
SK-MEL-5 melanoma = tested on: SK-MEL-5 melanoma
DMS 114 small cell lung = tested on: DMS 114 small cell lung
HCT-116 colon = tested on: HCT-116 colon
HOP-62 NSCLC = tested on: HOP-62 NSCLC
HCC-2998 colon = tested on: HCC-2998 colon
OVCAR-8 ovarian = tested on: OVCAR-8 ovarian
KM12 colon = tested on: KM12 colon
LXFL 529 NSCLC = tested on: LXFL 529 NSCLC
U251 CNS = tested on: U251 CNS
UACC-62 melanoma = tested on: UACC-62 melanoma
TK-10 renal = tested on: TK-10 renal
COLO 205 colon = tested on: COLO 205 colon
NCI-H460 lung = tested on: NCI-H460 lung
SNB-78 CNS = tested on: SNB-78 CNS
MOLT-4 leukemia = tested on: MOLT-4 leukemia
SNB-75 CNS = tested on: SNB-75 CNS
DMS 273 small cell lung = tested on: DMS 273 small cell lung
LOX IMVI melanoma = tested on: LOX IMVI melanoma
IGROV1 ovarian = tested on: IGROV1 ovarian
NCI-H23 lung = tested on: NCI-H23 lung
HOP-92 NSCLC = tested on: HOP-92 NSCLC
CAKI-1 renal = tested on: CAKI-1 renal
NCI-H522 lung = tested on: NCI-H522 lung
HOP-18 NSCLC = tested on: HOP-18 NSCLC
SF-295 CNS = tested on: SF-295 CNS
RPMI-8226 leukemia = tested on: RPMI-8226 leukemia
SR leukemia = tested on: SR leukemia
NCI-H226 lung = tested on: NCI-H226 lung
OVCAR-5 ovarian = tested on: OVCAR-5 ovarian
HT29 colon = tested on: HT29 colon
SW-620 colon = tested on: SW-620 colon
786-0 renal = tested on: 786-0 renal
OVCAR-4 ovarian = tested on: OVCAR-4 ovarian
SF-268 CNS = tested on: SF-268 CNS
CCRF-CEM leukemia = tested on: CCRF-CEM leukemia
A498 renal = tested on: A498 renal
SK-OV-3 ovarian = tested on: SK-OV-3 ovarian
UO-31 renal = tested on: UO-31 renal
RXF 393 renal = tested on: RXF 393 renal
HCT-15 colon = tested on: HCT-15 colon
M14 melanoma = tested on: M14 melanoma
SK-MEL-2 melanoma = tested on: SK-MEL-2 melanoma
SK-MEL-28 melanoma = tested on: SK-MEL-28 melanoma
ACHN renal = tested on: ACHN renal
UACC-257 melanoma = tested on: UACC-257 melanoma
A549 NSCLC = tested on: A549 NSCLC
EKVX NSCLC = tested on: EKVX NSCLC
XF 498 CNS = tested on: XF 498 CNS
SNB-19 CNS = tested on: SNB-19 CNS
HL-60(TB) leukemia = tested on: HL-60(TB) leukemia

Measured: TGI

Cc1ccc(/C=C(\C#N)c2ccccc2)cc1
> 100 µM: KM20L2 colon | M19-MEL melanoma | OVCAR-3 ovarian | DLD-1 colon | K-562 leukemia | SF-539 CNS | SN12C renal | SK-MEL-5 melanoma | DMS 114 small cell lung | HCT-116 colon | HOP-62 NSCLC | HCC-2998 colon | OVCAR-8 ovarian | KM12 colon | LXFL 529 NSCLC | U251 CNS | UACC-62 melanoma | TK-10 renal | COLO 205 colon | NCI-H460 lung | SNB-78 CNS | MOLT-4 leukemia | SNB-75 CNS | DMS 273 small cell lung | LOX IMVI melanoma | IGROV1 ovarian | NCI-H23 lung | HOP-92 NSCLC | CAKI-1 renal | NCI-H522 lung | HOP-18 NSCLC | SF-295 CNS | RPMI-8226 leukemia | SR leukemia | NCI-H226 lung | OVCAR-5 ovarian | HT29 colon | SW-620 colon | 786-0 renal | OVCAR-4 ovarian | SF-268 CNS | CCRF-CEM leukemia | A498 renal | SK-OV-3 ovarian | UO-31 renal | RXF 393 renal | HCT-15 colon | M14 melanoma | SK-MEL-2 melanoma | SK-MEL-28 melanoma | ACHN renal | UACC-257 melanoma

CCOC(=O)NC(=O)c1cn(CCN2CCNCC2)c(=O)[nH]c1=O
> 100 µM: M19-MEL melanoma | OVCAR-3 ovarian | DLD-1 colon | K-562 leukemia | SF-539 CNS | SN12C renal | SK-MEL-5 melanoma | DMS 114 small cell lung | HCT-116 colon | HOP-62 NSCLC | A549 NSCLC | EKVX NSCLC | OVCAR-8 ovarian | KM12 colon | LXFL 529 NSCLC | U251 CNS | UACC-62 melanoma | TK-10 renal | COLO 205 colon | NCI-H460 lung | SNB-78 CNS | MOLT-4 leukemia | XF 498 CNS | LOX IMVI melanoma | IGROV1 ovarian | NCI-H23 lung | HOP-92 NSCLC | CAKI-1 renal | NCI-H522 lung | SNB-19 CNS | HOP-18 NSCLC | SF-295 CNS | RPMI-8226 leukemia | SR leukemia | NCI-H226 lung | OVCAR-5 ovarian | HT29 colon | SW-620 colon | 786-0 renal | OVCAR-4 ovarian | SF-268 CNS | CCRF-CEM leukemia | SK-OV-3 ovarian | RXF 393 renal | HCT-15 colon | M14 melanoma | SK-MEL-2 melanoma | SK-MEL-28 melanoma | ACHN renal | HL-60(TB) leukemia
